In patent US5939403A, “Keratan sulfate oligosaccharide fraction and pharmaceutical containing the same” (Seikagaku Corporation, priority 1994, dated 1999):
Structures can show the parent of a compound that is named as a salt.

Assays:
papain-induced arthritis [1] = assay: Papain-induced unilateral arthritis model, intramuscular administration (volume of synovial fluid); type: in vivo, Japanese white rabbits (female); settings: for quantity of synovial fluid (FIG. 5, result in words): 10 rabbits per group; for Volume of Synovial Fluid: 7 days, control 722, normal 433
Method: (§1) The anti-inflammatory effect of the keratan sulfate oligosaccharide with rabbits of the papain-induced arthritis model was examined using the volume of synovial fluid as an indication.
(§2) Seven days after the injection, the blood was drawn from the auricular artery, and plasma containing heparin was separated. After drawing the blood, the rabbits were anatomized and the both knee joint were separated. The articular cavity was washed with 2 ml of saline three times to recover the synovial fluid. The calcium concentrations in the plasma and the recovered synovial fluid were determined, and the volume of synovial fluid was calculated from the following formula.
(§3) Volume of Synovial Fluid (ul/articulation)=Amount of Calcium in Recovered
(§4) Synovial Fluid (μg/articulation)/Concentration of Calcium in Plasma
Into the articular cavity of left joint of Japanese white rabbits (female) of 3 kg weight, 150 μl of the saline solution of papain (1%) was injected, and the right joint was not treated to prepare the unilateral arthritis model. One day after injecting papain, 150 μl of the PBS solution of the purified keratan sulfate tetrasaccharide (I) (2%, 1%, and 0.5% solution; 1.0 mg/kg, 0.5 mg/kg, and 0.25 mg/kg, respectively) which was prepared in Example 1 was injected into the hip muscle of the left side (hereinafter referred to as "the keratan sulfate tetrasaccharide (I) administered group"). As the control, 150 μl of PBS was injected to the arthritis model instead of the PBS solution of the keratan sulfate tetrasaccharide (I) and hereinafter these rabbits are referred to as "the control group". And the normal rabbits not subjected to the papain injection (hereinafter referred to as "the normal group") were also examined in the same manner hereinafter. Seven days after the injection, the volume of synovial fluid was calculated in the same manner as in (1-1).
The examination was performed in the same manner as in (1-3) except for using 150 μl of the PBS solution of the purified keratan sulfate tetrasaccharide (I), the keratan sulfate pentasaccharide (II), and the keratan sulfate disaccharide (III) (1% solution; 0.5 mg/kg) which were prepared in Example 1. In the figure, *, **, and *** represent that they have the significant difference with p<0.05, p<0.01, and p<0.001, respectively. And in each group, 10 rabbits were used for the examination.

MRL-lpr/lpr mice = assay: Repeated intramuscular administration for 56 days in MRL mice (lymph node weight); type: in vivo
Method: The effect of the keratan sulfate oligosaccharide was examined on MRL mice which are autoimmune disease model mice.
The PBS solution of the purified keratan sulfate disaccharide (III) which was prepared in Example 1 described above at a dose of 2.5 mg/kg, 5 mg/kg, or 10 mg/kg weight (hereinafter referred to as the 2.5 mg/kg administered group, the 5 mg/kg administered group, and the 10 mg/kg administered group, respectively), and PBS as the control (hereinafter sometimes referred to as the control group) was intramuscularly injected, respectively, to the femoral region of MRL-lpr/lpr mice seven times a week for eight weeks. After that, the mice were subjected to anatomization, and the weight of mesenteric lymph nodes and submandibular lymph nodes were determined to obtain the average weight, respectively. The results concerning mesenteric lymph nodes and submandibular lymph nodes are shown in FIG. 15 and FIG. 16 with the standard errors, respectively. In each group, seven mice were used.

submandibular lymph node [2] = assay: Apoptosis induction: TdT-mediated nick end labeling of submandibular lymph node; type: in vivo, MRL-lpr/lpr mice; settings: four weeks
Method: The PBS solution of the purified keratan sulfate disaccharide (III) which was prepared in Example 1 described above at a dose of 1 mg/kg, 5 mg/kg, or 25 mg/kg weight (hereinafter referred to as the 1 mg/kg administered group, the 5 mg/kg administered group, and the 25 mg/kg administered group, respectively), and PBS as the control (hereinafter sometimes referred to as the control group) was intramuscularly injected, respectively, to the femoral region of MRL-lpr/lpr mice seven times a week for four weeks. After that, the mice were subjected to anatomization to prepare the section specimens of submandibular lymph node (stained by the method of Gavrieli et al.; Terminal deoxynucleotidyl transferase (TdT)--mediated nick end labeling method; (J. Cell Biol., 119, 493-501 (1992))). In this staining method, apoptosis induced cells can be detected by detecting fragmented DNA ends. The specimens prepared was observed by a light microscope to determine the number of stained cells (the apoptosis induced cells; hereinafter sometimes referred to as the apoptosis cells) per unit area. In the figure, * and ** represent that they have the significant difference with p<0.05 and p<0.01, respectively (wherein "p" means a level of significance by the Bonferroni multiple comparative test). In each group, six mice were used.

submandibular lymph node [3] = assay: Observation of apoptic body in submandibular lymph node sections (HE staining); type: in vivo, MRL-lpr/lpr mice; settings: any dose (1, 5, 25 mg/kg i.m.), four weeks
papain-induced arthritis [4] = assay: Papain-induced bilateral arthritis model, intra-articular administration (volume of synovial fluid); type: in vivo, Japanese white rabbits (female); settings: for Volume of Synovial Fluid: 7 days, n = 8, p < 0.05, control 729, normal 437
Method: as §1
Into the articular cavity of both knee joint of Japanese white rabbits (female) of 3 kg weight, 150 μl of the saline solution of papain (1%) was injected to prepare the arthritis model. One day after injecting papain, 150 μl of the PBS solution of the purified keratan sulfate tetrasaccharide (I) (1% solution; 1.5 mg/joint) which was prepared in Example 1 was injected into the articular cavity of the left joint (hereinafter referred to as "the keratan sulfate tetrasaccharide (I) administered foot"), and 150 μl of PBS was injected into that of the right joint (hereinafter referred to as "the keratan sulfate tetrasaccharide (I) unadministered foot"). Hereinafter the rabbits subjected to administration of the keratan sulfate tetrasaccharide (I) are referred to as "the administered group". And the rabbits subjected to the papain injection only (hereinafter referred to as the control group) and the normal rabbits not subjected to the papain injection (hereinafter referred to as the normal group) were also examined in the same manner hereinafter.
as §2, §3, §4
In the table, "n" represents the number of rabbits in each group used in the experiment.

[5] = 0.5 mg/kg intramuscular, unilateral model

CC(=O)N[C@H]1C(O)O[C@H](COS(=O)(=O)O)[C@@H](O[C@@H]2O[C@H](COS(=O)(=O)O)[C@H](O)[C@H](O)[C@H]2O)[C@@H]1O (stereo partly drawn) [keratan sulfate disaccharide (III), Gal(6S)β1-4GlcNAc(6S)] was tested, and the “quantity of synovial fluid (FIG. 5, result in words)” value (papain-induced arthritis [1]; [5]) was “significantly less than that in the control group”, the “weight increase in mesenteric lymph nodes (FIG. 15)” value (MRL-lpr/lpr mice; 2.5 mg/kg i.m.) was “a suppressive effect on the weight increase in mesenteric lymph nodes was observed” and the “weight increase in mesenteric lymph nodes and submandibular lymph nodes (FIG. 15, FIG. 16)” value (MRL-lpr/lpr mice; 10 mg/kg i.m.) was “that in mesenteric lymph nodes and submandibular lymph nodes were observed”. For the same compound, the “number of the apoptosis cells (FIG. 22)” value (submandibular lymph node [2]; 5 mg/kg i.m.) was “the number of the apoptosis cells increased significantly to the control group”, the “number of the apoptosis cells (FIG. 22)” value (submandibular lymph node [2]; any dose (1, 5, 25 mg/kg i.m.)) was “an increase in the number of the apoptosis cells was observed” and the “existence of the apoptic body” value (submandibular lymph node [3]) was “the scattering of the apoptic body was observed”.
In the case of CC(=O)N[C@H]1[C@H](O[C@H]2[C@@H](O)[C@@H](COS(=O)(=O)O)O[C@@H](O[C@H]3[C@H](O)[C@@H](NC(C)=O)C(O)O[C@@H]3COS(=O)(=O)O)[C@@H]2O)O[C@H](COS(=O)(=O)O)[C@@H](O[C@@H]2O[C@H](COS(=O)(=O)O)[C@H](O)[C@H](O)[C@H]2O)[C@@H]1O (stereo partly drawn) [keratan sulfate tetrasaccharide (I), Gal(6S)β1-4GlcNAc(6S)β1-3Gal(6S)β1-4GlcNAc(6S)], the “Volume of Synovial Fluid” value (papain-induced arthritis [1]; 0.25 mg/kg intramuscular, n = 9, SD 70.6, p < 0.05) is reported as 619 µL, the “quantity of synovial fluid (FIG. 5, result in words)” value (papain-induced arthritis [1]; [5]) is reported as “significantly less than that in the control group” and the “Volume of Synovial Fluid” value (papain-induced arthritis [1]; 0.5 mg/kg intramuscular, n = 10, SD 68.9, p < 0.01) is reported as 597 µL. The “Volume of Synovial Fluid” value (papain-induced arthritis [1]; 1.0 mg/kg intramuscular, n = 9, SD 53.1, p < 0.01) was 528 µL, the “volume of synovial fluid (result in words)” value (papain-induced arthritis [1]; 0.25, 0.5, 1.0 mg/kg intramuscular, unilateral model) was “significantly less than that in the control group” and the “Volume of Synovial Fluid” value (papain-induced arthritis [4]; Administered Foot, 1.5 mg/joint intra-articular, SD 147) was 530 µL. For the same compound, the “Volume of Synovial Fluid” value (papain-induced arthritis [4]; Unadministered Foot, 1.5 mg in other joint, SD 130) was 537 µL and the “volume of synovial fluid (result in words)” value (papain-induced arthritis [4]; intra-articular, bilateral model) was “significantly less than that in the control group”.
